Source: publication PMC5688156, “The natural product carolacton inhibits folate-dependent C1 metabolism by targeting FolD/MTHFD” (Nature Communications, 2017)
pIC50, pKd, pKi: −log10 of the molar value. Several values for one entry are separate records, joined by “and”; a condition that tells them apart may be missing. Equal values may be shown once.

Experiments:
ecFolD [1] = molecular target: T1, ecFolD (Escherichia coli, UniProt P24186); test: ecFolD cyclohydrolase (CYH) enzyme assay; assay type: biochemical, E. coli
T1 construct: His-tag (TEV-cleavable, vector pHis-TEV); made in house; host or cells: E. coli BL21 (DE3)
Description: (6R,S)-5,10-Methylene-5,6,7,8-tetrahydrofolic acid ((6R,S)-5,10-CH2-THF) calcium salt and (6R,S)-5,10-Methenyl-5,6,7,8-tetrahydrofolic acid ((6R,S)-5,10-CH=THF) chloride were purchased from Schircks Laboratories (Bauma, Switzerland) and used as substrates for FolD dehydrogenase and cyclohydrolase enzyme assays, respectively. Only the R-isomer, which accounts for 50% of (6R,S)-5,10-CH2-THF and (6R,S)-5,10-CH=THF, respectively, is used by the enzyme. (6R,S)-5,10-CH2-THF was dissolved in N2-spargeled basic buffer (50 mM Tris-HCl (pH 8.0), 100 mM β-mercaptoethanol) as described by Varshney et al.[25]. (6R,S)-5,10-CH=THF was dissolved in DMSO as a 100 mM stock solution.
Because FolD is a bifunctional enzyme, dehydrogenase and cyclohydrolase activities were determined for FolD enzyme kinetics, respectively. The dehydrogenase activity of FolD was assayed for its substrate 5,10-CH2-THF and cofactor NADP^+ (in the case of MTHFD2, NAD^+ was used as the cofactor) based on monitoring the formation of 5,10-CH=THF, while the cyclohydrolase activity of FolD was determined for its substrate 5,10-CH=THF by monitoring the hydrolysis of […]. The enzyme kinetics for the dehydrogenase activity of all FolDs except hsMTHFD1_DC were determined at 30 °C in 50 mM Tris-HCl (pH 7.5), 30 mM β-mercaptoethanol. The hsMTHFD1_DC dehydrogenase activity was measured in 25 mM MOPS (pH 7.3), 30 mM β-mercaptoethanol at 30 °C. […] To monitor the formation of 5,10-CH=THF, the absorbance of the reaction mixture was monitored at 350 nm in micro UV cuvettes (BRAND, Essex, Connecticut, USA). The concentration of 5,10-CH=THF produced in the reaction was determined using an extinction co-efficient of 0.0249 μM^−1 cm^−1. […] The consumption of 5,10-CH=THF was measured by recording the absorbance of the reactions at 355 nm using the TECAN Infinite 200 PRO equipped with a monochromator. […] The inhibition constants (K i) of carolacton on FolD were determined by measuring the apparent K m when adding certain amounts of carolacton to the enzyme reactions. […]

ecFolD [2] = molecular target: T1, ecFolD; test: SPR binding to ecFolD; parameters: species or system E. coli
Description: All surface plasmon resonance (SPR) experiments described in this study were performed on a Biacore X100 system. Different FolDs with or without His-tag were coupled on CM5 sensor chips (GE Healthcare) by the amine coupling method using a kit from GE Healthcare Life Sciences (Freiburg, Germany). A pH scouting process was performed before protein immobilization to test the most appropriate buffer and the protein concentration for protein coupling. Finally, 20 μg/mL of ecFolD in 10 mM maleate buffer (pH 6.8), 30 μg/mL of ecFolD Q98H in 10 mM maleate buffer (pH 6.3), 40 μg/mL of ecFolD K54N in 10 mM maleate buffer (pH 5.8), 20 μg/mL of spFolD in 10 mM maleate buffer (pH 6.0) and 15 μg/mL of MTHFD2 (His-tag cleaved) in 10 mM maleate buffer (pH 6.8) were used for coupling. In the protein immobilization procedure, the contact time was calculated based on the pH scouting results to achieve ~3000–5000 relative resonance units (RU). The buffer used in the SPR assays was 1× HBS-P buffer (10 mM HEPES pH 7.4, 150 mM NaCl, 0.05% Tween 20). The 1 mM stock solution of carolacton was prepared in 1× HBS-P buffer and diluted to different concentration ranges by two-fold serial dilution. In the SPR assay, the association time was 180 s and the dissociation time was 600 s. Data analysis was performed using the Biacore evaluation software. […]

L929 mouse cells = tested on: L929 mouse cells; parameters: method as in doi:10.1002/ejoc.200901126, PMID 20659313; conditions: cited from earlier work

For `CO[C@H](CC(=O)O)[C@@H](C)C(=O)[C@H](C)/C=C(\C)[C@H]1OC(=O)[C@H](O)[C@H](O)/C=C/[C@H](C)CCC[C@@H]1C` [carolacton], the pIC50 (ecFolD [1]) was 7.30, the pKi (ecFolD [1]; Ki (5,10-CH=THF), carolacton inhibition on CYH activity, competitive vs substrate 5,10-CH=THF, from apparent KM) was 7.49 and 7.50 and the IC80 (ecFolD [1]; read-out: IC80, carolacton inhibition on CYH activity) was 180 nM. For the same compound, the pKd (ecFolD [2]) was 8.00, the koff (ecFolD [2]) was 0.01 s⁻¹ and the “acute toxicity to L929 mouse cells” value (L929 mouse cells) was “no acute toxicity”.
